What was measured:
[1] = target: T1, BTK in Ramos human Burkitt lymphoma cells (Homo sapiens, UniProt Q06187); assay: BTK Ramos cellular assay (BTK occupancy); format: cell-based; conditions: concentration producing 50% occupancy of BTK, 1 hour incubation with compound
T1 construct: Compounds of this invention were assayed in Ramos human Burkitt lymphoma cells; endogenous in cells; host or cells: Ramos human Burkitt lymphoma cells
Procedure: BTK activity in Ramos cells, in the presence of a compound of the invention, can be measured by 3 different methods: 1) inhibition of autophosphorylation of BTK; 2) inhibition of phosphorylation of the immediate BTK surrogate PLCγ2; and 3) BTK occupancy. […] In this instance, BTK occupancy was chosen and is described below.
Compounds of this invention were assayed in Ramos human Burkitt lymphoma cells. Ramos cells were grown in suspension in T175 flasks, spun down, resuspended to a concentration of 2×10^6 cells per mL in serum-free media and incubated for 1 hour. Compound was added to Ramos cells to a final concentration of 500, 166.7, 55.6, 18.5, 6.2, 2.1, and 0.7 nM. Ramos cells were incubated with compound for 1 hour, washed with PBS and lysed in 1004 of BioRad lysis Buffer. Cell lysates were incubated with a biotinylated covalent probe (compound 1-215 disclosed in U.S. published application number 2010/0029610, incorporated by reference in its entirety) at a final concentration of 1 μM in a PBS, 0.05% Tween-20, 1% BSA solution for 1 h at room temperature. Standards and samples were transferred to a streptavidin-coated 96-well ELISA plate and mixed while shaking for 1 h at room temperature. The α-Btk antibody (BD 611116, 1:1000 dilution in PBS+0.05% Tween-20+0.5% BSA) was then added and incubated for 1 h at room temperature. After wash, goat α-mouse-HRP (1:5000 dilution in PBS+0.05% Tween-20+0.5% BSA) was added and incubated for 1 h at room temperature. The ELISA was developed with addition of tetramethyl benzidine (TMB) followed by Stop Solution and read at OD 450 nm. The standard curve (11.7-3000 pg/μL) was generated with human full-length recombinant Btk protein and plotted using a 4 parameter curve fit in Gen5 software. Uninhibited Btk detected from samples was normalized to μg total protein as determined by BCA protein analysis (Pierce Cat. 23225).
The results of this assay show the concentration of compound producing 50% occupancy of BTK. This level of occupancy empirically translates to a level of 50% inhibition of BTK activity (both as measured by autophosphorylation and by phosphorylation of PLCγ2). […] The compound numbers correspond to the compound numbers in the examples.

activated BTK enzyme = target: T2, activated BTK enzyme (Homo sapiens, UniProt Q06187); assay: Omnia assay for potency assessment against BTK; format: biochemical; conditions: BTK inhibition assay; [BTK]=5 nM, [ATP]=40 μM, [Y5-Sox]=10 μM
T2 construct: purchased Life Technologies PV3363
T2 sequence (Q06187 whole entry): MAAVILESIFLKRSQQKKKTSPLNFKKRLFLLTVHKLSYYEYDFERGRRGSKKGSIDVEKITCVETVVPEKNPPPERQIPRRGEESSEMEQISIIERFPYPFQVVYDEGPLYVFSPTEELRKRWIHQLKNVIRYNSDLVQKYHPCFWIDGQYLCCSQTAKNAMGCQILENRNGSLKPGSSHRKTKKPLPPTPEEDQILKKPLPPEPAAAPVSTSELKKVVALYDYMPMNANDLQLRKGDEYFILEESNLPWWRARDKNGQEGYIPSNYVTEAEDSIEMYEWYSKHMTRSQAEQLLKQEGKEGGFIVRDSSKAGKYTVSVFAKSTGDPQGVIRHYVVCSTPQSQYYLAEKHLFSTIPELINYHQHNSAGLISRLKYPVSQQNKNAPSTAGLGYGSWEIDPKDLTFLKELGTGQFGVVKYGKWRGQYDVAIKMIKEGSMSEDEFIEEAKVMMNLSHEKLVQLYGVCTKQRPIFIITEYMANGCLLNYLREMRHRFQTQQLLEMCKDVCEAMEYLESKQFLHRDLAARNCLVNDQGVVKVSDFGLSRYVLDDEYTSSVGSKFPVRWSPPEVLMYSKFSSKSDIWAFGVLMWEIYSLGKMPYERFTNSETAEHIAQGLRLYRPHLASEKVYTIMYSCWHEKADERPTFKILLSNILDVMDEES
Source text: Omnia Assay Protocol for Potency Assessment Against BTK
The protocol below describes an assay to measure potency of compounds against the activated BTK enzyme. The mechanics of the assay platform are best described by the vendor (Life Technologies, Carlsbad, Calif.) on their website at the following URLs: www.lifetechnologies.com/us/en/home/life-science/drug-discovery/target-and-lead-identification-and-validation/kinasebiology/kinase-activity-assays/omnia-kinase-assays/omnia-kinase-principle.html and tools.lifetechnologies.com/content/sfs/manuals/omnia_kinase_assay_man.pdf
Briefly, 10× stocks of BTK (PV3363) from Life Technologies, 1.13×ATP (AS00lA) and Sox conjugated peptide substrates, Y5-Sox, (KZN305l) were prepared in 1× kinase reaction buffer consisting of 20 mM Tris, pH 7.5, 5 mM MgCl2, 1 mM EGTA, 5 mM (3-glycerophosphate, 5% glycerol (10× stock, KB002A) and 0.2 mM DTT (DS00lA). 5 μL of each enzyme were pre-incubated in a Corning (#3574) 384-well, white, non-binding surface microtiter plate (Corning, N.Y.) for 30 min. at room temperature with a 0.5 μL volume of 50% DMSO or serially diluted compounds prepared in 50% DMSO. Kinase reactions were started with the addition of […] of the ATP/Tyr-Sox peptide substrate Y5 mix and monitored every 71 seconds for 60 minutes at λex360/λem485 in a Synergy4 plate reader from BioTek (Winooski, Vt.). At the conclusion of each assay, progress curves from each well were examined for linear reaction kinetics and fit statistics (R2, 95% confidence interval, absolute sum of squares). Initial velocity (0 minutes to ˜30 minutes) from each reaction was determined from the slope of a plot of relative fluorescence units vs time (minutes) and then plotted against inhibitor concentration to estimate IC50 from log [Inhibitor] vs Response, Variable Slope model in GraphPad Prism from GraphPad Software (San Diego, Calif.).
Reagent conditions for the assay are:
[BTK]=5 nM, [ATP]=40 μM, [Y5-Sox]=10 μM (ATP KMapp˜36 μM).
The compound numbers correspond to the compound numbers in the examples.

T1 sequence (Q06187 whole entry): as above

| SMILES | EC50 [1] | IC50 (activated BTK enzyme) | melting point |
| --- | --- | --- | --- |
| C=CC(=O)N1CCC[C@@H](Nc2nc(Nc3ccc4c(c3)CN(CC3CC3)CC4)ncc2F)C1 [Compound I-47, (R)-1-(3-(2-(2-(Cyclopropylmethyl)-1,2,3,4-tetrahydroisoquinolin-7-ylamino)-5-fluoropyrimidin-4-ylamino)piperidin-1-yl)prop-2-en-1-one] | < 10 nM | < 10 nM | 80 to 82 °C |
| C=CC(=O)N1CCC[C@@H](Nc2nc(Nc3ccc4c(c3)CCN(C)CC4)ncc2F)C1 [Compound I-58, (R)-1-(3-(5-Fluoro-2-(3-methyl-2,3,4,5-tetrahydro-1H-benzo[d]azepin-7-ylamino)pyrimidin-4-ylamino)piperidin-1-yl)prop-2-en-1-one] | < 10 nM | < 10 nM | 102 to 104 °C |
| C=CC(=O)N1CCC[C@@H](Nc2nc(Nc3ccc4c(c3)CN(C(C)(C)C)C4)ncc2F)C1 [Compound I-25, (R)-1-(3-((2-((2-(tert-butyl)isoindolin-5-yl)amino)-5-fluoropyrimidin-4-yl)amino)piperidin-1-yl)prop-2-en-1-one] | < 10 nM | < 10 nM |  |
| C=CC(=O)N1CCC[C@@H](Nc2nc(Nc3ccc4c(c3)CN(C)CC4)ncc2F)C1 [Compound I-34, (R)-1-(3-((5-Fluoro-2-((2-methyl-1,2,3,4-tetrahydroisoquinolin-7-yl)amino)-pyrimidin-4-yl)amino)piperidin-1-yl)prop-2-en-1-one] | < 10 nM | < 10 nM |  |
| C=CC(=O)N1CCC[C@@H](Nc2nc(Nc3ccc4c(c3)CN(CC(F)(F)F)C4)ncc2F)C1 [Compound I-22, (R)-1-(3-((5-fluoro-2-((2-(2,2,2-trifluoroethyl)isoindolin-5-yl)amino)pyrimidin-4-yl)amino)piperidin-1-yl)prop-2-en-1-one] | 10 to 100 nM | < 10 nM |  |
| C=CC(=O)N1CCC[C@@H](Nc2nc(Nc3ccc4c(c3)CCN(CC3CC3)C4)ncc2F)C1 [Compound I-43, (R)-1-(3-((2-((2-(cyclopropylmethyl)-1,2,3,4-tetrahydroisoquinolin-6-yl)amino)-5-fluoropyrimidin-4-yl)amino)piperidin-1-yl)prop-2-en-1-one] | < 10 nM | < 10 nM |  |
| C=CC(=O)N1CCC[C@@H](Nc2nc(Nc3ccc4c(c3)CNC4)ncc2F)C1 [Compound I-1, (R)-1-(3-((5-fluoro-2-(isoindolin-5-ylamino)pyrimidin-4-yl)amino)piperidin-1-yl)prop-2-en-1-one] | 10 to 100 nM | < 10 nM |  |
| C=CC(=O)N1CCC[C@@H](Nc2nc(Nc3ccc4c(c3)CCNC4)ncc2F)C1 [Compound I-27, (R)-1-(3-((5-fluoro-2-((1,2,3,4-tetrahydroisoquinolin-6-yl)amino)pyrimidin-4-yl)amino)piperidin-1-yl)prop-2-en-1-one] | 10 to 100 nM | < 10 nM |  |
| C=CC(=O)N1CCC[C@@H](Nc2nc(Nc3ccc4c(c3)CN(CC3CC3)C4)ncc2F)C1 [Compound I-19, (R)-1-(3-((2-((2-(cyclopropylmethyl)isoindolin-5-yl)amino)-5-fluoropyrimidin-4-yl)amino)piperidin-1-yl)prop-2-en-1-one] | < 10 nM | < 10 nM |  |
| C=CC(=O)N1CCC[C@@H](Nc2nc(Nc3ccc4c(c3)CCN(C3CC3)CC4)ncc2F)C1 [Compound I-60, (R)-1-(3-(2-(3-Cyclopropyl-2,3,4,5-tetrahydro-1H-benzo[d]azepin-7-ylamino)-5-fluoropyrimidin-4-ylamino)piperidin-1-yl)prop-2-en-1-one] | 10 to 100 nM | < 10 nM |  |
| C=CC(=O)N1CCC[C@@H](Nc2nc(Nc3ccc4c(c3)CCN(CC3COC3)C4)ncc2F)C1 [Compound I-32, (R)-1-(3-(5-Fluoro-2-(2-(oxetan-3-ylmethyl)-1,2,3,4-tetrahydroisoquinolin-6-ylamino)pyrimidin-4-ylamino)piperidin-1-yl)prop-2-en-1-one] | < 10 nM | < 10 nM |  |
| C=CC(=O)N1CCC[C@@H](Nc2nc(Nc3ccc4c(c3)CN(C3CCC3)C4)ncc2F)C1 [Compound I-18, (R)-1-(3-((2-((2-Cyclobutylisoindolin-5-yl)amino)-5-fluoropyrimidin-4-yl)amino)piperidin-1-yl)prop-2-en-1-one] | < 10 nM | < 10 nM |  |
| C=CC(=O)N1CCC[C@@H](Nc2nc(Nc3ccc4c(c3)CN(C3(C)CCOCC3)C4)ncc2F)C1 [Compound I-40, (R)-1-(3-(5-Fluoro-2-(2-(4-methyltetrahydro-2H-pyran-4-yl)isoindolin-5-ylamino)pyrimidin-4-ylamino)piperidin-1-yl)prop-2-en-1-one] | < 10 nM | < 10 nM |  |
| C=CC(=O)N1CCC[C@@H](Nc2nc(Nc3ccc4c(c3)CN(CC3COC3)CC4)ncc2F)C1 [Compound I-36, (R)-1-(3-(5-Fluoro-2-(2-(oxetan-3-ylmethyl)-1,2,3,4-tetrahydroisoquinolin-7-ylamino)pyrimidin-4-ylamino)piperidin-1-yl)prop-2-en-1-one] | < 10 nM | < 10 nM |  |
| C=CC(=O)N1CCC[C@@H](Nc2nc(Nc3ccc4c(c3)CN(C3COC3)C4)ncc2F)C1 [Compound I-13, (R)-1-(3-((5-Fluoro-2-((2-(oxetan-3-yl)isoindolin-5-yl)amino)pyrimidin-4-yl)amino)piperidin-1-yl)prop-2-en-1-one] | 10 to 100 nM | < 10 nM |  |
| C=CC(=O)N1CCC[C@@H](Nc2nc(Nc3ccc4c(c3)CN(CC3CCOCC3)C4)ncc2F)C1 [Compound I-11, (R)-1-(3-(5-Fluoro-2-(2-((tetrahydro-2H-pyran-4-yl)methyl)isoindolin-5-ylamino)pyrimidin-4-ylamino)piperidin-1-yl)prop-2-en-1-one] | < 10 nM | < 10 nM |  |
| C=CC(=O)N1CCC[C@@H](Nc2nc(Nc3ccc4c(c3)C(C)(C)N(C)C4(C)C)ncc2F)C1 [Compound I-41, (R)-1-(3-(5-Fluoro-2-(1,1,2,3,3-pentamethylisoindolin-5-ylamino)pyrimidin-4-ylamino)piperidin-1-yl)prop-2-en-1-one] | 10 to 100 nM | < 10 nM |  |
| C=CC(=O)N1CCC[C@@H](Nc2nc(Nc3ccc4c(c3)CCNCC4)ncc2F)C1 [Compound I-57, (R)-1-(3-(5-Fluoro-2-(2,3,4,5-tetrahydro-1H-benzo[d]azepin-7-ylamino)pyrimidin-4-ylamino)piperidin-1-yl)prop-2-en-1-one] | 10 to 100 nM | < 10 nM |  |
| C=CC(=O)N1CCC[C@@H](Nc2nc(Nc3ccc4c(c3)CNCC4)ncc2F)C1 [Compound I-33, (R)-1-(3-(5-fluoro-2-(1,2,3,4-tetrahydroisoquinolin-7-ylamino)pyrimidin-4-ylamino)-piperidin-1-yl)prop-2-en-1-one] | < 10 nM | < 10 nM |  |

— US20160159774A1 (Celgene Avilomics Research, Inc., priority 2014, published 2016)
